Results reported in patent publication US12186392B2, “Combination therapy of an anti CD20 antibody with a BTK inhibitor” (Ono Pharmaceutical Co., Ltd., priority 2013, dated 2025).
Structures can show the parent of a compound that is named as a salt.

Columns and labels:
TMD8 (ABC-DLBCL) cells [1] = assay: Antitumor activity study of compound A or compound B (in diet) in combination with RTX in TMD8 xenograft model (Example 3); assay type: in vivo, SCID mice; details: for Tumor growth inhibition (TGI): vs vehicle group, RTX 3 mg/kg i.v. Q7Dx3, compound A 0.0037% in diet (6 mg/kg/day), compound B 0.012% in diet (20 mg/kg/day)
Method: Mice were xenografted on DO. […] Mice received one IV injection of Rituximab (at 3 mg/kg) once a week (D14 (Day 0), 21 (Day 7) and 28 (Day 14): Q7D×3). Tumor volumes were monitored and recorded at Day 3, Day 7, Day 11, Day 14, Day 18 and Day 21.
(§1) Female C.B-17/lcr-SCID/SCIDJcl mice (Clea Japan Inc., age at initiation of experiment: 6 weeks; hereinafter referred to as “Scid mice”) were used. The mice were kept in metal mouse cages, 3 to 5 to a cage, and underwent about 1 week acclimation period prior to being subjected to the experiment. While at our facility, the animals were allowed solid feed, CRF-1 (Oriental Yeast Co., Ltd.) and tap water (from an automatic dispenser) ad libitum. Excrement was processed with an automated cleaning system. The general condition of the animals was observed upon receipt and at the completion of acclimation. Animals having no problems with general condition were used in the experiment.
(§2) TMD8 was established from cells of a patient with diffuse large B-cell lymphoma (Tohda S et al., Leuk Res., 2006, 30: 1385-90). RPMI Medium 1640 (Invitrogen Corporation, hereinafter referred to as “RPMI”) containing 10 vol % inactivated FBS and 1 vol % Penicillin-Streptomycin liquid (Invitrogen Corporation) was prepared and used as medium. The medium was stored at 5° C. (allowable range: 1° C. to 9° C.). The cell suspension of 4×106 to 2.0×10^7 cells per dish was inoculated in a 150 mm dish containing the medium. The plates were incubated at 37° C., 5% CO2, 95% air.
(§3) At Day 0, the pellet was suspended in RPMI previously cooled on ice to obtain a 2×10^8 cells/mL cell suspension. The RPMI cell suspension and equal volume of BD Matrigel GFR (BD Biosciences) were combined to prepare a 1×10^8 cells/mL cell suspension. This was used as the cell suspension for implantation. Then, 0.1 mL of cell suspension was subcutaneously injected in the right flank of the mice under pentobarbital anesthesia, using a 25-gauge needle (Terumo Corporation).
(§4) The long axis and short axis of the tumors were measured with electronic calipers (Mitutoyo Corporation) every 2 or 4 days from TMD8 implantation to the final assessment day.
(§5) The primary endpoint was tumor volume on the final assessment day. In addition, the tumor growth inhibition rate (TGI, %) in the treatment groups versus the vehicle group was calculated. Temporal change in tumor volume and body weight from Day 0 were used as secondary endpoints. Tumor volume was calculated with the following formula. Tumor volume=Long axis of tumor×(short axis of tumor)2×0.5
The experiment in Example 3 was performed according to the method described in Example 1 except for the following “substance vehicle”, “route of drug administration” and “treatment schedule”
The comparative substance, ibrutinib (hereinafter referred to as “compound B”), was stored in sealed containers at ambient temperature, protected from light.
The dose of compound A or compound B corresponds to a daily intake of 6 or 20 mg/kg of body weight.
Treatment groups: Mice fed the same diet containing compound A or compound B after randomization. Rituximab was administered intravenously at a 3 mg/kg once weekly.
Tumor diameter was measured and tumor volume was calculated every 3 or 4 days after group assignment.

TMD8 (ABC-DLBCL) cells [2] = assay: Antitumor activity study of compound A in combination with GA101/RTX in TMD8 xenograft model (Example 2); assay type: in vivo, SCID mice; details: for Tumor growth inhibition (TGI): vs vehicle group, GA101 3 mg/kg i.v. Q7Dx4, RTX 3 mg/kg i.v. Q7Dx4, compound A 10 mg/kg p.o. twice daily
Method: Mice were xenografted on DO. […] Mice received one IV injection of Rituximab (at 3 mg/kg) or one IV injection of GA101 (at 3 mg/kg) once a week (D14 (Day 0), 21 (Day 7), 28 (Day 14) and 35 (Day 21): Q7D×4). Tumor volumes were monitored and recorded twice a week.
Compound A was per os (PO) administered to mice twice daily by oral gavage via a disposable oral feeding needle (Fuchigami Kikai Co.) at 10 ml/kg. GA101/Rituximab were intravenously (IV) injected at 10 ml/kg in the caudal vein of mice. For all treatments, the administration volumes were adapted according to the closest measure of individual body weight for each mouse. The compound A b.i.d. group and the vehicle group received compound A and 0.5% MC, respectively, in the morning and afternoon at an interval of 8 h or more.
as §1, §2, §3, §4, §5
The experiment in Example 2 was performed according to the method described in Example 1 except for the following “substance vehicle” and “treatment schedule”.
(§6) Compound A was weighed out and suspended in a 0.5 w/v % methyl cellulose 400 cP solution (Wako Pure Chemical Industries, Ltd., hereinafter referred to as “0.5% MC”), using a mortar and pestle, to obtain a 1 mg/mL (10 mg/kg) suspension. The suspension was used within 7 days of preparation.
The stock solutions of both GA101 (25 mg/mL) and Rituximab (10 mg/mL) were kept at 4° C. Before administration to mice, the stock solutions were diluted in NaCl 0.9% at 0.3 mg/mL (3 mg/kg) for this study.
When the mean tumor volume reached 400 to 450 mm^3 mice were randomized in groups of 6 according to their individual tumor volumes and treatment was initiated.

[3] = Stability and uniformity of compound A suspension in 0.5% methyl cellulose; assay type: physicochemical; details: 1 mg/mL suspension in 0.5% MC; 7 days under refrigeration, protected from light, and a further 24 hours at ambient temperature exposed to indoor lighting
Method: Compound A was weighed out and suspended in a 0.5 w/v % methyl cellulose 400 cP solution (Wako Pure Chemical Industries, Ltd., hereinafter referred to as “0.5% MC”), using a mortar and pestle, to obtain a 1 mg/mL suspension. The suspension was used within 7 days of preparation.
as §6

[4] = tested on: NK cell-mediated cytotoxicity; details: Kohrt H E et al., Blood 123, 1957-1960, 2014; cited from earlier work
TMD8 (ABC-DLBCL) cells [5] = assay: Antitumor efficacy study of compound A in combination with GA101 in SCID mice subcutaneously xenografted with TMD8 cells (Example 1); assay type: in vivo; details: GA101 1 and 3 mg/kg i.v. Q7Dx4
Method: Mice were xenografted on DO. Mice received one PO administration of vehicle and compound A at 10 mg/kg twice every day (Q0.5D×24) alone or in combination with one IV injection of GA101 at 1 and 3 mg/kg once a week (Q7D×4). Mice received one IV injection of Rituximab (at 3 mg/kg) or one IV injection of GA101 (at 1 and 3 mg/kg) once a week (D14 (Day 0), 21 (Day 7), 28 (Day 14) and D35 (Day 21): Q7D×4). Tumor volumes were monitored and recorded twice a week.
Antitumor efficacy study of BTK inhibitor in combination with anti-CD20 Abs in SCID mice subcutaneously xenografted with TMD8 (ABC-DLBCL) cells
The test substance, 6-amino-9-[(3R)-1-(2-butynoyl)-3-pyrrolidinyl]-7-(4-phenoxyphenyl)-7,9-dihydro-8H-purin-8-one hydrochloride (hereinafter referred to as “compound A”), was stored in sealed containers at ambient temperature, protected from light.
Compound A was weighed out and suspended in a 0.5 w/v % methyl cellulose 400 cP solution (Wako Pure Chemical Industries, Ltd., hereinafter referred to as “0.5% MC”), using a mortar and pestle, to obtain a 1 mg/mL suspension. The suspension was used within 7 days of preparation. […]
TMD8 was established from cells of a patient with diffuse large B-cell lymphoma (Tohda S et al., Leuk Res., 2006, 30: 1385-90). […] Cells were counted in a hemocytometer and their viability was at least 90% the day of cells injection. […]

Stability and uniformity of suspension [3]	Compound	Antitumor activity compared with the compound B arm (TMD8 (ABC-DLBCL) cells [1]; compound A 0.0037% vs compound B 0.012% in diet, alone or with RTX 3 mg/kg)	Tumor growth inhibition (TGI) (TMD8 (ABC-DLBCL) cells [1]; day 0)	Tumor growth inhibition (TGI) (TMD8 (ABC-DLBCL) cells [1]; day 3)	Tumor growth inhibition (TGI) (TMD8 (ABC-DLBCL) cells [1]; day 7)	Tumor growth inhibition (TGI) (TMD8 (ABC-DLBCL) cells [1]; day 11)	Tumor growth inhibition (TGI) (TMD8 (ABC-DLBCL) cells [1]; day 14)	Tumor growth inhibition (TGI) (TMD8 (ABC-DLBCL) cells [1]; day 18)	Tumor growth inhibition (TGI) (TMD8 (ABC-DLBCL) cells [1]; day 21)	Tumor growth inhibition (TGI) (TMD8 (ABC-DLBCL) cells [2]; day 0)	Tumor growth inhibition (TGI) (TMD8 (ABC-DLBCL) cells [2]; day 4)	Tumor growth inhibition (TGI) (TMD8 (ABC-DLBCL) cells [2]; day 7)	Tumor growth inhibition (TGI) (TMD8 (ABC-DLBCL) cells [2]; day 11)	Tumor growth inhibition (TGI) (TMD8 (ABC-DLBCL) cells [2]; day 14)	Tumor growth inhibition (TGI) (TMD8 (ABC-DLBCL) cells [2]; day 18)	Tumor growth inhibition (TGI) (TMD8 (ABC-DLBCL) cells [2]; day 21)	Statistical significance observed after Day (TMD8 (ABC-DLBCL) cells [2]; monotherapy, GA101 or RTX 3 mg/kg i.v., compound A 10 mg/kg p.o.)	Statistical significance observed after Day (TMD8 (ABC-DLBCL) cells [1]; monotherapy, RTX 3 mg/kg i.v., compound A 0.0037%, compound B 0.012% in diet)	Effect on RTX-dependent NK cell-mediated cytotoxicity [4]	Antitumoral effect (tumour volume curves, FIGS. 1A-1B) (TMD8 (ABC-DLBCL) cells [5])
stable and uniform	CC#CC(=O)N1CC[C@@H](n2c(=O)n(-c3ccc(Oc4ccccc4)cc3)c3c(N)ncnc32)C1 [compound A, 6-amino-9-[(3R)-1-(2-butynoyl)-3-pyrrolidinyl]-7-(4-phenoxyphenyl)-7,9-dihydro-8H-purin-8-one hydrochloride]	comparable to compound B (0.012%)	0.0%	12.7%	42.8%	47.55%	51.1%	61.0%	56.1%	0.0%	13.7%	17.6%	34.0%	45.8%	46.4%	62.6%	> 11 days	–	–	–
–	C=CC(=O)N1CCC[C@@H](n2nc(-c3ccc(Oc4ccccc4)cc3)c3c(N)ncnc32)C1 [compound B, ibrutinib]	–	0.4%	3.2%	19.1%	34.91%	40.2%	39.2%	47.1%	–	–	–	–	–	–	–	–	> 11 days	antagonizes RTX-dependent NK cell-mediated cytotoxicity	–
–	GA101: obinutuzumab, afucosylated glyco-engineered humanized B-Ly1 type II anti-CD20 antibody	–	–	–	–	–	–	–	–	1.7%	30.9%	45.0%	53.3%	63.3%	72.2%	77.9%	–	–	–	showed an antitumoral effect
